Assay results reported in paper PMC2646871 (Journal of Medicinal Chemistry, 2008).

Biological target: recombinant HIV-1 integrase (Human immunodeficiency virus type 1 group M subtype B, UniProt P12497)
Experiment: High throughput electrochemiluminescent
Assay type: biochemical
Details: for times less potent than parent compound 6f (ST, HTECL): relative to 6f

SMILES | IC50 [nM] | times less potent than parent compound 6f (ST, HTECL)
O=C(O)/C(O)=C/C(=O)c1cn(Cc2ccc(F)cc2)c2ccc(F)cc2c1=O [6b, 4-[6-Fluoro-1-(4-fluorophenyl)methyl-4(1H)-quinolinon-3-yl]-2-hydroxy-4-oxo-2-butenoic Acid] | 30 | –
O=C(O)/C(O)=C/C(=O)c1cn(Cc2ccc(F)cc2)c2cc(N3CCCC3)ccc2c1=O [6i, 4-[1-(4-Fluorophenyl)methyl-7-(pyrrolidin-1-yl)-4(1H)-quinolinon-3-yl]-2-hydroxy-4-oxo-2-butenoic Acid] | – | approximately 1.5
CCOC(=O)/C(O)=C/C(=O)c1c[nH]c2cc(Cl)ccc2c1=O [7b, 4-(7-Chloro-4(1H)-quinolinon-3-yl)-2-hydroxy-4-oxo-2-butenoic Acid Ethyl Ester] | > 111000 | –
O=C(O)/C(O)=C/C(=O)c1c[nH]c2ccc(Cl)cc2c1=O [8a, 4-(6-Chloro-4(1H)-quinolinon-3-yl)-2-hydroxy-4-oxo-2-butenoic Acid] | > 111000 | –

Second part, the compound after the results:

IC50 [nM] | times less potent than parent compound 6f (ST, HTECL) | SMILES
23 | – | O=C(O)/C(O)=C/C(=O)c1cn(Cc2ccc(F)cc2)c2c(Cl)cccc2c1=O [6g, 4-[8-Chloro-1-(4-fluorophenyl)methyl-4(1H)-quinolinon-3-yl]-2-hydroxy-4-oxo-2-butenoic Acid]
– | approximately 1.5 | O=C(O)/C(O)=C/C(=O)c1cn(Cc2ccc(F)cc2)c2cc(Cl)c(Cl)cc2c1=O [6h, 4-[6,7-Dichloro-1-(4-fluorophenyl)methyl-4(1H)-quinolinon-3-yl]-2-hydroxy-4-oxo-2-butenoic Acid]
